Results published in US20250002464A1, “NOVEL COMPOUND AND PHARMACEUTICAL COMPOSITION COMPRISING SAME” (SAPIENSBIO INC., priority 2021, published 2025).

Experiments:
Arp2/3 complex = test: in vitro actin polymerization test (pyrene-labeled actin); assay type: biochemical; details: 10 μM, VCA domain protein, spherical actin monomers, 1 hour, compared to control (FIG. 1)
Experimental: Although actin polymerization, which is a process of forming actin filaments from actin monomers, is involved in controlling cell movement, tissue fibrosis may be caused by the promotion of excessive α-SMA expression and induction of myofibroblast activation. Accordingly, an in vitro actin polymerization test was performed to confirm the actin polymerization controlling function of the compounds according to the present invention.
Specifically, a pyrene-labeled spherical actin stock was diluted with general actin buffer (5 mM Tris-HCl pH 8.0, 0.2 mM CaCl2)) and incubated at 4° C. for 1 hour, thereby producing spherical actin monomers. Afterward, 80% of a supernatant was recovered by centrifugation at 20,000×g and 4° C. for 3 hours, and 0.1 mg/mL spherical actin monomers were prepared. The Arp2/3 complex, the VCA domain protein, and Compound 12, 38, or 59 (10 μM each) according to the present invention were added to the spherical actin monomers and an actin polymerization buffer and reacted at room temperature for 1 hour. The increased fluorescence intensity during the reaction from the spherical actin monomer to a fibrous actin polymer was measured using a microplate reader at an excitation wavelength of 360 nm and an emission wavelength of 407 nm. The degree of actin polymerization was shown relative to the maximum polymerization rate (arbitrary units).

MCR5 cell line = test: intracellular F-actin polymerization, TGF-β1-treated cells, confocal microscope; assay type: cell-based; details: 10 μM along with TGF-β1 (10 ng/mL), 48 hours (FIGS. 2A and 2B)
Text: F-actin polymerization activates transcription factors involved in the activation of myofibroblasts and the initiation of fibrosis. Accordingly, when F-actin polymerization decreases, the expression of fibrosis-causing genes by the transcription factors may be inhibited, and the activation and fibrosis of muscle fiber cells may be reduced. Therefore, in this example, it was confirmed whether the compounds according to the present invention are effective in inhibiting F-actin polymerization.
An MCR5 cell line was dispensed at 1×10^3 cells/well in a 96-well black micro plate and cultured in Medium 1 (10% FBS-containing MEM) in 5% CO2 at 37° C. for 24 hours. Subsequently, the above medium was exchanged with Medium 2 (0.5% FBS-containing MEM), a compound of the present invention was treated at 10 μM along with TGF-β1 (10 ng/mL), and the cells were incubated for 48 hours. After removing the entire batch, the cells were treated with each of CellMask Orange Actin Tracking Stain (Invitrogen) and NucBlue Live ReadyProbes (Invitrogen) to performing F-actin and cell nucleus staining in accordance with the manufacturer's recommended conditions. Cells treated with the staining reagents were incubated for 30 minutes at 5% CO2 and 37° C. while blocking light. After completing the incubation, the staining reagents were removed, fresh Medium 1 was added to the cells at 100 μL/well, and then the cells were incubated for 5 minutes, followed by removal of the medium. The above process was repeated three times. To observe the stained F-actin and cell nucleus, PBS was added to the plate at 100 μL/well, and then the cells were photographed using a confocal microscope (Leica) and analyzed using Image J software.

α-SMA [1] = test: α-SMA protein level by Western blotting in TGF-β1-treated fibroblasts; assay type: cell-based; details: MRC5 cells, 5, 10, or 20 μM, TGF-β1 (10 ng/mL), 70 hours
Text: (§1) α-SMA protein is a marker of activated myofibroblasts, which are the main effector cells of fibrosis, myofibroblasts with increased α-SMA expression are known to produce a fibrotic protein such as collagen type 1 and cause fibrosis. Therefore, in this example, it was confirmed whether the compound according to the present invention is effective in inhibiting fibrosis by reducing the expression of α-SMA and other pro-fibrotic factors (COL1A1, COL4A1, fibronectin, and p-SMAD2).
(§2) Specifically, lung tissue-derived fibroblasts, MRC5 cells, were treated with Compound 59 according to the present invention (5, 10, or 20 μM), nintedanib (1 μM), or DMSO, and then 2 hours later, treated with TGF-β1 (10 ng/mL). After 70 hours, the cells were lysed in RIPA buffer (50 mM Tris-HCl, 150 mM NaCl, 1% NP-40, 0.5% sodium deoxycholate, 0.1% SDS, protease inhibitor & phosphatase inhibitor cocktail, pH 8.0), which had been cooled to 4° C. The cell lysate was centrifuged at 4° C. at a speed of 15,000×g for 30 minutes, and then the supernatant was collected. After matching the total amount of proteins in the supernatant of each sample (15 to 30 μg), the proteins were separated according to molecular weight using SDS polyacrylamide gel electrophoresis (SDS-PAGE). […]

COL1A1 = COL1A1 protein level by Western blotting in TGF-β1-treated fibroblasts; assay type: cell-based; details: MRC5 cells, 5, 10, or 20 μM, TGF-β1 (10 ng/mL), 70 hours
Text: as §1, §2

COL4A1 = COL4A1 protein level by Western blotting in TGF-β1-treated fibroblasts; assay type: cell-based; details: MRC5 cells, 5, 10, or 20 μM, TGF-β1 (10 ng/mL), 70 hours
Text: as §1, §2

fibronectin = fibronectin protein level by Western blotting in TGF-β1-treated fibroblasts; assay type: cell-based; details: MRC5 cells, 5, 10, or 20 μM, TGF-β1 (10 ng/mL), 70 hours
Text: as §1, §2

p-SMAD2 = test: phosphorylation of SMAD2 by Western blotting in TGF-β1-treated fibroblasts; assay type: cell-based; details: TGF-β1 (10 ng/mL), 70 hours
Text: as §1, §2

α-SMA [2] = test: α-SMA expression inhibitory ability in MRC5 cell line (Western blotting); assay type: cell-based; details: TGF-β1 (10 ng/mL), 72 hours, relative to TGF-β1 only
How it was run: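 MRC5 cells given compound at 10 μM, then TGF-β1 (10 ng/mL) 2 h later; after 72 h, lysates probed for α-SMA by Western blot. Inhibition is α-SMA level relative to TGF-β1 alone, binned A ≥70%, B 50–<70%, C <50%.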

**Q.** What does the source list for CC(C(=O)N1CCN(c2ccccc2)c2ccccc21)N1CCCC[C@H]1C (stereo partly drawn) [Compound 59, 2-((R)-2-methylpiperidin-1-yl)-1-(4-phenyl-3,4-dihydroquinoxaline-1(2H)-yl)propan-1-one phosphate]?
**A.** actin polymerization activity (maximum polymerization rate) (Arp2/3 complex): decreased compared to the control; intracellular F-actin polymerization (MCR5 cell line): significantly reduced; α-SMA protein level (α-SMA [1]): significantly decreased; COL1A1 protein level (COL1A1): greatly decreased; COL4A1 protein level (COL4A1): greatly decreased; fibronectin protein level (fibronectin): greatly decreased; phosphorylation of SMAD2 protein (p-SMAD2; MRC5 cells, 5, 10, or 20 μM): decreased in a concentration-dependent manner; phosphorylation of SMAD2 protein compared to nintedanib (p-SMAD2; MRC5 cells, compared to nintedanib (1 μM)): reduced to a greater extent; inhibition at 10 µM (α-SMA [2]): < 50%
